Data published in patent US20100298141A1, “SUBSTITUTED PYRIDINE N-OXIDE HERBICIDES” (E. I. DU PONT DE NEMOURS AND COMPANY, priority 2007, published 2010).

What was measured:
Assay in all cases: Test F preemergence test
dallisgrass = format: in vivo, Paspalum dilatatum; conditions: scale 0 to 100
In short: (§1)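 Compounds in a non-phytotoxic solvent formulation with surfactant were applied before emergence after sowing, or, for sugarcane, also postemergence. Evaluation was visual, against controls, after 14 to 21 greenhouse days.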

johnsongrass = format: in vivo, Sorghum halepense; conditions: scale 0 to 100
In short: as §1

annual bluegrass = format: in vivo, Poa annua; conditions: scale 0 to 100
In short: as §1

itchgrass = format: in vivo, Rottboellia cochinchinensis; conditions: scale 0 to 100
In short: as §1

common mallow = format: in vivo, Malva sylvestris; conditions: scale 0 to 100
In short: as §1

green foxtail = format: in vivo, Setaria viridis; conditions: scale 0 to 100
In short: as §1

common groundsel = format: in vivo, Senecio vulgaris; conditions: 125 g ai/ha, preemergence, scale 0 to 100
In short: as §1

common purslane = format: in vivo, Portulaca oleracea; conditions: scale 0 to 100
In short: as §1

spanishneedles = format: in vivo, Bidens bipinnata; conditions: scale 0 to 100; for Plant response rating, Spanishneedles: Preemergence
In short: as §1

naked crabgrass = format: in vivo, Digitaria nuda; conditions: scale 0 to 100
In short: as §1

Virginia dayflower = format: in vivo, Commelina virginica; conditions: scale 0 to 100
In short: as §1

guineagrass = format: in vivo, Panicum maximum; conditions: scale 0 to 100
In short: as §1

Russian thistle = format: in vivo, Salsola kali; conditions: 16 g ai/ha, preemergence; scale 0 to 100
In short: as §1

prickly sida = format: in vivo, Sida spinosa; conditions: scale 0 to 100
In short: as §1

field bindweed = format: in vivo, Convolvulus arvensis; conditions: scale 0 to 100
In short: as §1

pitted morningglory = format: in vivo, Ipomoea lacunosa; conditions: scale 0 to 100
In short: as §1

Compound: CC(c1c(C(F)(F)F)nn(C)c1OCC(F)(F)F)S(=O)(=O)c1cccc[n+]1[O-] (racemic) [Compound 33]
- Plant response rating, Dallisgrass (dallisgrass; 16 g ai/ha, preemergence): 30
- Dallisgrass plant response rating (dallisgrass; 62 g ai/ha, Preemergence): 80
- Dallisgrass plant response rating (dallisgrass; 125 g ai/ha, preemergence): 100
- Plant response rating, Dallisgrass (dallisgrass; Preemergence, 31 g ai/ha): 65
- Plant response rating, Johnsongrass (johnsongrass; 16 g ai/ha, preemergence): 30
- Johnsongrass plant response rating (johnsongrass; 62 g ai/ha, Preemergence): 100
- Johnsongrass plant response rating (johnsongrass; 125 g ai/ha, preemergence): 100
- Plant response rating, Johnsongrass (johnsongrass; Preemergence, 31 g ai/ha): 60
- Plant response rating, Bluegrass (annual bluegrass; 16 g ai/ha, preemergence): 35
- Bluegrass plant response rating (annual bluegrass; 62 g ai/ha, Preemergence): 100
- Bluegrass plant response rating (annual bluegrass; 125 g ai/ha, preemergence): 100
- Plant response rating, Bluegrass (annual bluegrass; Preemergence, 31 g ai/ha): 65
- Plant response rating, Itchgrass (itchgrass; 16 g ai/ha, preemergence): 25
- Itchgrass plant response rating (itchgrass; 62 g ai/ha, Preemergence): 80
- Itchgrass plant response rating (itchgrass; 125 g ai/ha, preemergence): 100
- Plant response rating, Itchgrass (itchgrass; Preemergence, 31 g ai/ha): 40
- Plant response rating, Mallow (common mallow; 16 g ai/ha, preemergence): 100
- Mallow plant response rating (common mallow; 62 g ai/ha, Preemergence): 100
- Mallow plant response rating (common mallow; 125 g ai/ha, preemergence): 100
- Plant response rating, Mallow (common mallow; Preemergence, 31 g ai/ha): 100
- Plant response rating, Foxtail, Green (green foxtail; 16 g ai/ha, preemergence): 0
- Foxtail, Green plant response rating (green foxtail; 62 g ai/ha, Preemergence): 100
- Foxtail, Green plant response rating (green foxtail; 125 g ai/ha, preemergence): 100
- Plant response rating, Foxtail, Green (green foxtail; Preemergence, 31 g ai/ha): 50
- Groundsel plant response rating (common groundsel): 100
- Plant response rating, Purslane (common purslane; 16 g ai/ha, preemergence): 0
- Purslane plant response rating (common purslane; 62 g ai/ha, Preemergence): 65
- Purslane plant response rating (common purslane; 125 g ai/ha, preemergence): 100
- Plant response rating, Purslane (common purslane; Preemergence, 31 g ai/ha): 20
- Spanishneedles plant response rating (spanishneedles; 125 g ai/ha, preemergence): 65
- Plant response rating, Spanishneedles (spanishneedles; 62 g ai/ha): 35
- Plant response rating, Spanishneedles (spanishneedles; 31 g ai/ha): 35
- Plant response rating, Crabgrass, Naked (naked crabgrass; 16 g ai/ha, preemergence): 75
- Crabgrass, Naked plant response rating (naked crabgrass; 62 g ai/ha, Preemergence): 100
- Crabgrass, Naked plant response rating (naked crabgrass; 125 g ai/ha, preemergence): 100
- Plant response rating, Dayflower (Virginia dayflower; 16 g ai/ha, preemergence): 60
- Dayflower plant response rating (Virginia dayflower; 62 g ai/ha, Preemergence): 98
- Dayflower plant response rating (Virginia dayflower; 125 g ai/ha, preemergence): 100
- Plant response rating, Dayflower (Virginia dayflower; Preemergence, 31 g ai/ha): 90
- Plant response rating, Guineagrass (guineagrass; 16 g ai/ha, preemergence): 70
- Guineagrass plant response rating (guineagrass; 62 g ai/ha, Preemergence): 100
- Guineagrass plant response rating (guineagrass; 125 g ai/ha, preemergence): 100
- Plant response rating, Guineagrass (guineagrass; Preemergence, 31 g ai/ha): 100
- Plant response rating, Russian Thistle (Russian thistle): 0
- Plant response rating, Prickly Sida (prickly sida; 16 g ai/ha, preemergence): 25
- Prickly Sida plant response rating (prickly sida; 62 g ai/ha, Preemergence): 90
- Prickly Sida plant response rating (prickly sida; 125 g ai/ha, preemergence): 100
- Plant response rating, Prickly Sida (prickly sida; Preemergence, 31 g ai/ha): 90
- Plant response rating, Field Bindweed (field bindweed; 16 g ai/ha, preemergence): 0
- Field Bindweed plant response rating (field bindweed; 62 g ai/ha, Preemergence): 50
- Field Bindweed plant response rating (field bindweed; 125 g ai/ha, preemergence): 60
- Plant response rating, Field Bindweed (field bindweed; Preemergence, 31 g ai/ha): 0
- Plant response rating, Morningglory (pitted morningglory; 16 g ai/ha, preemergence): 0
- Morningglory plant response rating (pitted morningglory; 62 g ai/ha, Preemergence): 98
- Morningglory plant response rating (pitted morningglory; 125 g ai/ha, preemergence): 100
- Plant response rating, Morningglory (pitted morningglory; Preemergence, 31 g ai/ha): 15
